Experimental data as given in patent publication US20220257503A1, “Surface Modified Gas Vesicles, Preparation and Applications thereof” (THE HONG KONG POLYTECHNIC UNIVERSITY, priority 2019, published 2022).

Tests used:
[1] = system: SCC7 tumor-bearing nude mice; assay: Biodistribution by NIR fluorescence imaging in tumor-bearing mice; assay type: in vivo
Method: Animal experiments were conducted under protocols approved by Animal Care and Use Committee (CC/ACUCC) of Hong Kong Polytechnic University. Suspension of 4×10^6 SCC7 cells in PBS (80 μL) was injected to subcutaneous sites in athymic nude mice (seven weeks old, female, 20-24 g). When the tumor size (in the right leg region) reached average size of 120 mm^3, mice were randomly allocated into three groups, (a) injecting free ICG solution into the tail veins of mice; (b) injecting ICG labelled GVs solution into the tail veins of mice; and (c) injecting ICG labelled PH-GVs solution into the tail veins of mice. Fluorescent imagines were acquired at 0, 0.5, 1, 2, 4, 8, 12, 24 and 48 h after injection using IVIS Lumina II (Caliper Life Sciences, USA; Excitation Filter: 780 nm, Emission Filter: 800 nm).
At the time of highest accumulation after one-dose injection, SCC7 tumors and normal organs (hearts, livers, spleens, kidneys, lungs and muscles) were collected for acquisition of Fluorescent signal intensity.

MCF-7 cells [2] = assay: Cell apoptosis after PDT by Annexin V/PI flow cytometry; assay type: cell-based, Human; details: PDT (PpIX plus laser)
Method: (§1) Photodynamic therapy setup: Cells were exposed to laser with the power of 100 mW/cm^2 for 5 min. The light source with a wavelength of 396 nm that was generated by an optical fiber was collimated to an aperture and irradiated to the 35 mm cell culture dish. The position of the cell culture plate was manually controlled by a dual-axis electric linear platform. After the treatment, cells were cultured in fresh medium for 4 h and then prepared for different analyses.
Cell apoptosis test: Cells were seeded at a density of 5×10^5 cells in 6-cm dishes and incubated for 24 h. Alexa Fluor 488 Annexin V/Dead Cell Apoptosis Kit (Thermo Fisher Scientific) was used to measure cell apoptosis according to the manufacturer's instructions. Cells were collected and incubated with 5 μL of the annexin V conjugate and 1 μL of the PI working solution at room temperature for 15 min. The cells were analyzed by FACS Calibur flow cytometer and BD Accuri C6 Software (Becton-Dickinson, USA).

MCF-7 cells [3] = assay: PDT cytotoxicity by CCK-8 assay; assay type: cell-based, Human
Method: as §1
Cell culture: Human breast cancer cell line (MCF-7) was obtained from the Shanghai Cell Bank. […]
Cell viability test: In the pilot study, MCF-7 cells were divided randomly into eight groups: (1) control, (2) laser alone, (3) PpIX alone, (4) PpIX plus laser (PDT), (5) PpIX+GVs+laser (PDT+GVs), (6) PpIX+oxyGVs+laser (PDT+oxy-GVs), (7) GVs+laser, and (8) oxyGVs+laser. […] Cell viability at the different time points following PDT was determined using a Cell Counting Kit-8 (Sigma-Aldrich) according to the manufacturer's instructions. […] Cytotoxicity was determined by adding 10 μl CCK-8 reagent per well for 1 h at 37° C. in 5% CO2. The absorbance of the treated samples against a blank control was measured at 450 nm as the detection wavelength. The viability of treated cells was determined by comparing to the untreated ones in the control group.

[4] = Singlet oxygen generation in cell free system under ultrasound (SOSG); details: alone; PpIX 10 μM, GVs 2 nM
Method: SDT setup: 1 MHz planar ultrasound transducer with diameter of 5 cm (Olympus, Tokyo, Japan) was used for sonification in this study. Function generator (AFG 3251, Tektronix Company, Oregon, USA) and power amplifier (Model 500 A250 CAR; Souderton, Pa., USA) were used to generate ultrasonic pulses. Cells were exposed to ultrasound 10 cm away from transducer coupled by degassed deionized water at 25° C. Acoustic intensity and field were characterized by hydrophone (HGL-200; Onda, Sunnyvale, Calif., USA). The spatial peak temporal average intensity was measured to be 8 W/cm^2; the duty cycle was 20% with fixed pulse repetition frequency (PRF) of 1000 Hz. The overall sonification duration was 5 min. The temperature increase in cell-culture experiment solution was controlled within 2.5° C. After the ultrasound treatment, cells were cultured in fresh medium for 4 h and then prepared for different analyses.
Generation of singlet oxygen: SOSG (10 μM) was used to detect singlet oxygen generation. The solution was exposed to ultrasound and protected from light during the exposure time. The fluorescence intensity of SOSG was measured by microplate reader at an excitation wavelength of 488 nm and an emission wavelength of 530 nm.

SMILES | fluorescence at tumor sites (in vivo imaging) ([1]; after intravenous injection, PH-GVs at 8 h) | fluorescence signals in the normal organs (in vivo imaging) ([1]; early time points (0.5-2 h) for ICG/GVs, up to 8 h for PH-GVs) | viable cells (MCF-7 cells [2]) | effects on cell viability (MCF-7 cells [3]; PpIX alone, no laser) | cell viability (MCF-7 cells [3]; PpIX+laser (ALA-PDT), 4 h following PDT) | SOSG fluorescence intensity before and after ultrasound treatment [4]
CC1(C)C(/C=C/C=C/C=C/C=C2\N(CCCCS(=O)(=O)[O-])c3ccc4ccccc4c3C2(C)C)=[N+](CCCCS(=O)(=O)[O-])c2ccc3ccccc3c21.[Na+] [ICG] | no strong fluorescence signal | considerable fluorescence signals | – | – | – | –
C=CC1=C(C)c2cc3[nH]c(cc4[nH]c(cc5nc(cc1n2)C(C)=C5C=C)c(C)c4CCC(=O)O)c(CCC(=O)O)c3C [PpIX] | – | – | 74.7% | no effects | 75% | increased significantly
